Like-named read-outs stand apart in the source and are kept apart here.
Biological target: mu-opioid receptor (MOR) (Homo sapiens (Human), UniProt P35372)
Assay: cell-based
Details: for AUC: AUC of [Ca2+]i fluorescence, CHO-K1/MOR/Gα15 cells
Description: In an exemplary in vitro screening method for identifying antagonist-to-agonist allosteric modifiers of a MOR, cells that express a MOR are treated with a test compound and a MOR antagonist in a cellular calcium fluorescent assay and fluorescence intensity is then measured to determine whether the MOR is activated. A test compound is identified as an antagonist-to-agonist allosteric modifier of the MOR if the MOR is activated.
EC50 herein refers to the concentration of a compound that induces a response halfway between the baseline and the maximum after a specified exposure time. AUC refers to the area under the response curve, an indication of the compound's capability of activating a MOR when combined with a MOR antagonist.
Human embryonic kidney 293 (HEK-293) cells constitutively expressing MOR (HEK-MOR) and DOR (HEK-DOR) (kindly provided by Dr. Ping-Yee Law, University of Minnesota, USA) were cultured in high-glucose Dulbecco's modified Eagle's medium (DMEM, GIBCO) supplemented with 400 μg/mL G418 (Sigma), 2 mM L-glutamine and P/S/F (100 units/mL penicillin, 100 μg/mL streptomycin, 10% fetal bovine serum). Chinese hamster ovary (CHO)-K1 cells, stably expressing hMOR and Gα15 (CHO-K1/MOR/Gα15), were cultured in F12 medium (GIBCO) supplemented with 10 μg/mL Hygromycin B (Invivogen), 20 μg/mL Zeocin (Invivogen) P/S/F (100 units/mL penicillin, 100 μg/mL streptomycin, 10% fetal bovine serum). The cultures were incubated at 37° C. in a humidified 5% CO2 incubator.
One day before the assay, CORNING® black with clear flat bottom 96-well assay plates were coated with a 0.1 mg/mL Poly-L-Lysine solution. CHO-K1/MOR/Gα15 cells were suspended in the F12 medium and plated at a density of ˜8×10^4 cells/well in 200 μL medium. Cells were incubated in a humidified atmosphere of 10% CO2 at 37° C. overnight so as to reach an 80-90% confluent cell monolayer before assay. At the day of assay, 150 μL medium/well was removed from plate. To each well, 50 μL FLIPR® calcium assay reagent dissolved in 1× assay buffer (HBSS: KCl 5 mM, KH2PO4 0.3 mM, NaCl 138 mM, NaHCO3 4 mM, Na2HPO4 0.3 mM, d-glucose 5.6 mM, with additional 20 mM HEPES and 13 mM CaCl2, pH 7.4), with 2.5 mM probenecid was added and the plate was incubated at 37° C. for 1 h. Compounds and other reagents were dissolved in the assay buffer. Using a FlexStationIII (Molecular Devices Corp.), the [Ca^2+]i fluorescence increases after robotic injections of compounds or other reagents were monitored every 1.52 s interval with excitation wavelength at 485 nm and with emission wavelength at 525 nm. The [Ca^2+]i fluorescence was measured up to 90 s after agonist injection.
A CHO-K1 cell line, expressing a MOR and Gα15 (GenScript), was used to set up a sensitive high-throughput screen (HTS) system. In a FLIPR® calcium assay using CHO-K1/MOR/Gα15 cells, activation of MOR elicits an intracellular calcium release leading to an increase in the relative fluorescence units (FRU). […] The HTS was performed in the absence or presence of an opioid antagonist, naloxone (25 nM), to identify antagonist to agonist allosteric modifiers (AAM).
A CHO-K1 cell line, expressing a MOR and Gα15 (GenScript), was used to set up a sensitive assay system for detecting μ-opioid receptor activation. […] The assay was performed in the presence of an opioid antagonist, i.e., naloxone (25 nM), naltrexone (20 nM), samidorphan (10 nM), naloxonazine dihydrochloride (20 nM), β-funaltrexamine hydrochloride (20 nM), cyprodime hydrochloride (500 nM), or nalmefene (20 nM), in combination with compound 58, an antagonist to agonist allosteric modifier (AAM), to identify activation of the μ-opioid receptor.

[1] = combined with a MOR antagonist, read-out: FLIPR Ca^2+ EC50
[2] = EC50, CHO-K1/MOR/Gα15 cells, combined with a MOR antagonist

Sequence of mu-opioid receptor (MOR) (P35372 whole entry): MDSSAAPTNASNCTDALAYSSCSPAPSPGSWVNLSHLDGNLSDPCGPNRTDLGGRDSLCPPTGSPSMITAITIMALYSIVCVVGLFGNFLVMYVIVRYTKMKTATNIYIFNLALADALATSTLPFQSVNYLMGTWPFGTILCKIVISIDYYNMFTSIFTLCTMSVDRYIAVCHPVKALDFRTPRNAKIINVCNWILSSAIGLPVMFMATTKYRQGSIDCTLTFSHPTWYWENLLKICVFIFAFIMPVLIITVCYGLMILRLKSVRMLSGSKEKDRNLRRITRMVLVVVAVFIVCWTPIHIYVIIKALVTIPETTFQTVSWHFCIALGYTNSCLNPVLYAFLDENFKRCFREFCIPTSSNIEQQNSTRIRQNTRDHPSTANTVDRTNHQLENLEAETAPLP

Cc1cc(C(=O)OC2(C)CC2)ccc1N1C(=O)CSC1c1ccc(F)cc1 (stereo not drawn) [Example 236]
FLIPR Ca^2+ AUC (combined with a MOR antagonist): 13348 | EC50 [1]: 4.7 µM

Cc1cc(C(=O)N2CC[C@@H](N(C)C)C2)ccc1N1C(=O)CSC1c1ccc(F)cc1 (stereo partly drawn) [Example 349]
FLIPR Ca^2+ AUC (combined with a MOR antagonist): 11923 | EC50 [1]: 10 µM

Cc1cc(C(=O)NS(=O)(=O)Cc2cccc(F)c2)ccc1N1C(=O)CSC1c1ccc(F)cc1 (stereo not drawn) [Example 177]
FLIPR Ca^2+ AUC (combined with a MOR antagonist): 16276 | EC50 [1]: 2.2 µM

Cc1cc(C(=O)NN)ccc1N1C(=O)CSC1c1ccc(F)cc1 (stereo not drawn) [Example 220]
FLIPR Ca^2+ AUC (combined with a MOR antagonist): 13871 | EC50 [1]: 4.9 µM

Cc1cc(C(=O)NS(=O)(=O)C(C)C)ccc1N1C(=O)CSC1c1ccc(F)cc1 (stereo not drawn) [Example 165]
AUC (combined with a MOR antagonist): more than 5000 | FLIPR Ca^2+ AUC (combined with a MOR antagonist): 11927 | EC50 [1]: 22.6 µM

Cc1cc(C(=O)NS(=O)(=O)c2ccc(Cl)cc2)ccc1N1C(=O)CSC1c1ccc(F)cc1 (stereo not drawn) [Example 198]
AUC (combined with a MOR antagonist): more than 5000 | EC50 [2]: < 10 µM | FLIPR Ca^2+ AUC (combined with a MOR antagonist): 13313 | EC50 [1]: 0.5 µM

Cc1cc(C(=O)NS(=O)(=O)Cc2ccccc2)ccc1N1C(=O)CSC1c1ccc(F)cc1 (stereo not drawn) [Example 176]
FLIPR Ca^2+ AUC (combined with a MOR antagonist): 10601 | EC50 [1]: 2 µM

Cc1cc(C(=O)NCc2ccc(Cl)cc2F)ccc1N1C(=O)CSC1c1ccc(F)cc1 (stereo not drawn) [Example 375]
FLIPR Ca^2+ AUC (combined with a MOR antagonist): 4172 | EC50 [1]: 3.8 µM

CCCCOC(=O)c1ccc(N2C(=O)CSC2c2ccc(F)cc2)c(C)c1 (stereo not drawn) [Example 234]
FLIPR Ca^2+ AUC (combined with a MOR antagonist): 10062 | EC50 [1]: 9 µM

Cc1cc(C(=O)NS(=O)(=O)c2cccc3c(N(C)C)cccc23)ccc1N1C(=O)CSC1c1ccc(F)cc1 (stereo not drawn) [Example 210]
AUC (combined with a MOR antagonist): more than 5000 | EC50 [2]: < 10 µM | FLIPR Ca^2+ AUC (combined with a MOR antagonist): 9425 | EC50 [1]: 0.7 µM

CCCNC(=O)c1ccc(N2C(=O)CSC2c2ccc(F)cc2)c(C)c1 (stereo not drawn) [Example 334]
EC50 [2]: < 10 µM | FLIPR Ca^2+ AUC (combined with a MOR antagonist): 9672 | EC50 [1]: 5.7 µM

Cc1c(N2C(=O)CSC2c2ccccc2F)c(=O)n(-c2ccccc2)n1C (stereo not drawn) [Example 406]
AUC (combined with a MOR antagonist): more than 5000 | FLIPR Ca^2+ AUC (combined with a MOR antagonist): 9974 | EC50 [1]: 31.2 µM

Cc1cc(C(=O)O)ccc1N1C(=O)CSC1c1ccc(F)c(F)c1 (stereo not drawn) [Example 62]
AUC (combined with a MOR antagonist): more than 5000 | EC50 [2]: < 10 µM | FLIPR Ca^2+ AUC (combined with a MOR antagonist): 21586 | EC50 [1]: 1.6 µM

Cc1cc(C(=O)OCc2cccnc2)ccc1N1C(=O)CSC1c1ccc(F)cc1 (stereo not drawn) [Example 261]
AUC (combined with a MOR antagonist): more than 5000 | EC50 [2]: < 10 µM | FLIPR Ca^2+ AUC (combined with a MOR antagonist): 11434 | EC50 [1]: 2.9 µM

Cc1cc(C(=O)OCCOCCN)ccc1N1C(=O)CSC1c1ccc(F)cc1 (stereo not drawn) [Example 303]
AUC (combined with a MOR antagonist): more than 5000 | EC50 [2]: < 10 µM | FLIPR Ca^2+ AUC (combined with a MOR antagonist): 9530 | EC50 [1]: 7 µM

CCONC(=O)c1ccc(N2C(=O)CSC2c2ccc(F)cc2)c(C)c1 (stereo not drawn) [Example 215]
FLIPR Ca^2+ AUC (combined with a MOR antagonist): 10945 | EC50 [1]: 4.1 µM

Cc1cc(C(=O)N2CCCC(O)C2)ccc1N1C(=O)CSC1c1ccc(F)cc1 (stereo not drawn) [Example 353]
FLIPR Ca^2+ AUC (combined with a MOR antagonist): 11991 | EC50 [1]: 7.3 µM

[2H]C1(c2ccc(F)cc2)SCC(=O)N1c1ccc(C(=O)OCC)cc1C (stereo not drawn) [Example 583, Ethyl 4-[2-(4-fluorophenyl)-4-oxo-2-d1-1,3-thiazolidin-3-yl]-3-methylbenzoate]
AUC (combined with a MOR antagonist): more than 5000 | EC50 [2]: < 10 µM | EC50 (FLIPR Ca^2+ EC50, combined with a MOR antagonist): 4.42 µM | FLIPR Ca^2+ AUC (combined with a MOR antagonist): 11275

CC(=O)c1ccc(C)c(N2C(=O)CSC2c2ccc(F)cc2)c1 (stereo not drawn) [Example 90]
EC50 [2]: < 10 µM

CCSCCOC(=O)c1ccc(N2C(=O)CSC2c2ccc(F)cc2)c(C)c1 (stereo not drawn) [Example 271]
FLIPR Ca^2+ AUC (combined with a MOR antagonist): 11997 | EC50 [1]: 14 µM

COc1ccc(S(=O)(=O)NC(=O)c2ccc(N3C(=O)CSC3c3ccc(F)cc3)c(C)c2)cc1 (stereo not drawn) [Example 188]
FLIPR Ca^2+ AUC (combined with a MOR antagonist): 21983 | EC50 [1]: 0.7 µM

Cc1ccc(C(F)(F)F)cc1N1C(=O)CSC1c1ccc(F)cc1 (stereo not drawn) [Example 92]
EC50 [2]: < 10 µM

Cc1cc(C(=O)NCc2ccc(F)c(F)c2)ccc1N1C(=O)CSC1c1ccc(F)cc1 (stereo not drawn) [Example 378]
EC50 [2]: < 10 µM | FLIPR Ca^2+ AUC (combined with a MOR antagonist): 15891 | EC50 [1]: 6.3 µM

Cc1ccc(F)cc1N1C(=O)CSC1c1ccc(Cl)c(F)c1 (stereo not drawn) [Example 123]
FLIPR Ca^2+ AUC (combined with a MOR antagonist): 4228 | EC50 [1]: 0.5 µM

Cc1cc(F)ccc1N1C(=O)CSC1c1ccc(F)cc1 (stereo not drawn) [Example 110]
FLIPR Ca^2+ AUC (combined with a MOR antagonist): 6308 | EC50 [1]: 3.8 µM

COc1cccc(NC(=O)c2ccc(N3C(=O)CSC3c3ccc(F)cc3)c(C)c2)c1 (stereo not drawn) [Example 368]
AUC (combined with a MOR antagonist): more than 5000 | EC50 [2]: < 10 µM | FLIPR Ca^2+ AUC (combined with a MOR antagonist): 8915 | EC50 [1]: 6.7 µM

Cc1cc(C(=O)OCOC(=O)C(C)(C)C)ccc1N1C(=O)CSC1c1ccc(F)cc1 (stereo not drawn) [Example 273]
EC50 [2]: < 10 µM | FLIPR Ca^2+ AUC (combined with a MOR antagonist): 12265 | EC50 [1]: 5.7 µM

COc1ccc(C2SCC(=O)N2c2ccc(C(=O)O)cc2C)cc1 (stereo not drawn) [Example 78]
AUC (combined with a MOR antagonist): more than 5000 | EC50 [2]: < 10 µM | FLIPR Ca^2+ AUC (combined with a MOR antagonist): 9368 | EC50 [1]: 6 µM

COC(=O)c1ccc(N2C(=O)CSC2c2ccsc2)c(C)c1 (stereo not drawn) [Example 648, Methyl 3-methyl-4-[4-oxo-2-(thiophen-3-yl)-1,3-thiazolidin-3-yl]benzoate]
AUC (combined with a MOR antagonist): more than 5000 | EC50 [2]: < 10 µM | FLIPR Ca^2+ AUC (combined with a MOR antagonist): 9356 | EC50 [1]: 2.01 µM

Cc1cc(C(=O)N2CCC(N)CC2)ccc1N1C(=O)CSC1c1ccc(F)cc1 (stereo not drawn) [Example 357]
EC50 [2]: < 10 µM | FLIPR Ca^2+ AUC (combined with a MOR antagonist): 12663 | EC50 [1]: 10 µM

CCN(CC)CCOC(=O)c1ccc(N2C(=O)CSC2c2ccc(F)cc2)c(C)c1 (stereo not drawn) [Example 292]
FLIPR Ca^2+ AUC (combined with a MOR antagonist): 10056 | EC50 [1]: 3.1 µM

COc1cc(F)c(F)cc1N1C(=O)CSC1c1ccc(F)cc1 (stereo not drawn) [Example 10, 3-(4,5-Difluoro-2-methoxyphenyl)-2-(4-fluorophenyl)thiazolidin-4-one]
EC50 [2]: < 10 µM | FLIPR Ca^2+ AUC (combined with a MOR antagonist): 6152 | EC50 [1]: 2 µM

Cc1cc(C(=O)OCCOCCOC(=O)c2ccc(N3C(=O)CSC3c3ccc(F)cc3)c(C)c2)ccc1N1C(=O)CSC1c1ccc(F)cc1 (stereo not drawn) [Example 390]
AUC (combined with a MOR antagonist): more than 5000 | FLIPR Ca^2+ AUC (combined with a MOR antagonist): 7399 | EC50 [1]: 13.9 µM

From patent publication US10544113B2 (priority 2016, dated 2020)
